Measured values published in patent US20230053688A1, “METHODS TO ALTER LATENCY IN EBV+ MALIGNANCIES” (Cornell University, priority 2020, published 2023).
Where a name gives a salt, the structure may show the parent alone. Read-outs that look alike come from different tables or passages of the source.

System: LMP1 expression in Kem I cells
Assay: microbe, parasite or virus in culture
Format: cell-based, EBV
Conditions: for Average LMP1 Fold Increase / Replicate 1-LMP1 Fold Increase / Replicate 2-LMP1 Fold Increase: Kem I cells, 48 hours; for Average LMP1 Fold Increase: average of replicates 1 and 2; for Replicate 1-LMP1 Fold Increase / Replicate 2-LMP1 Fold Increase: fold change in LMP1 transcript vs vehicle; for fold induction at 2.5 µM: human gammaherpesvirus 4, 48 h
[1] = read-out: Average LMP1 Fold Increase, Kem I cells, 2.5 uM, 48 hours, average of replicates 1 and 2
[2] = read-out: Replicate 1-LMP1 Fold Increase, Kem I cells, 2.5 uM, 48 hours, fold change in LMP1 transcript vs vehicle
[3] = read-out: Replicate 2-LMP1 Fold Increase, Kem I cells, 2.5 uM, 48 hours, fold change in LMP1 transcript vs vehicle

Structure (SMILES) | Average LMP1 Fold Increase (2.5 uM) | Replicate 1-LMP1 Fold Increase (2.5 uM) | Replicate 2-LMP1 Fold Increase (2.5 uM) | also measured
CC1=C(C(=O)OC2CCCCC2)C(c2ccc([N+](=O)[O-])cc2)C2=C(CC(C)(C)CC2=O)N1 (stereo not drawn) [FLI-06] | 0.46 | 0.19 | 0.73 | –
CCOC(=O)C1=C(C)NC(C)=C(C(=O)OC)C1c1cccc(Cl)c1Cl (stereo not drawn) [Felodipine] | – | – | – | fold induction at 2.5 µM [1]: 0.77; fold induction at 2.5 µM [2]: 0.84; fold induction at 2.5 µM [3]: 0.69
CCOC(=O)c1ccc(NC2CCCCC2)c(N)c1 [Ferrostatin-1 (Fer-1)] | 0.22 | 0.24 | 0.19 | –
CC(C)(C)NC(=O)[C@H]1CC[C@H]2[C@@H]3CC[C@H]4NC(=O)C=C[C@]4(C)[C@H]3CC[C@]12C [Finasteride] | – | – | – | fold induction at 2.5 µM [1]: 0.66; fold induction at 2.5 µM [2]: 0.51; fold induction at 2.5 µM [3]: 0.81
CCCCCCCCc1ccc(CCC(N)(CO)CO)cc1.Cl [Fingolimod (FTY720) HCl] | 0.69 | 0.33 | 1.06 | –
CC(C)n1c(/C=C/C(O)CC(O)CC(=O)O)c(-c2ccc(F)cc2)c2ccccc21 (stereo not drawn) [Fluvastatin Sodium] | – | – | – | fold induction at 2.5 µM [1]: 0.94; fold induction at 2.5 µM [2]: 0.84; fold induction at 2.5 µM [3]: 1.04
COCCCC/C(=N\OCCN)c1ccc(C(F)(F)F)cc1 [Fluvoxamine maleate] | – | – | – | fold induction at 2.5 µM [1]: 0.67; fold induction at 2.5 µM [2]: 0.97; fold induction at 2.5 µM [3]: 0.37
COc1ccc(C[C@@H](C)NC[C@H](O)c2ccc(O)c(NC=O)c2)cc1.COc1ccc(C[C@@H](C)NC[C@H](O)c2ccc(O)c(NC=O)c2)cc1.O=C(O)/C=C/C(=O)O [Formoterol Hemifumarate] | 1.83 | 1.71 | 1.96 | –
C=C[C@@]1(C)CC(=O)[C@]2(O)[C@@]3(C)[C@@H](O)CCC(C)(C)[C@@H]3[C@H](O)[C@H](OC(C)=O)[C@@]2(C)O1 [Forskolin] | – | – | – | fold induction at 2.5 µM [1]: 1.25; fold induction at 2.5 µM [2]: 1.39; fold induction at 2.5 µM [3]: 1.11
COc1cc(Nc2ncc(F)c(Nc3ccc4c(n3)N(COP(=O)(O)O)C(=O)C(C)(C)O4)n2)cc(OC)c1OC [Fostamatinib (R788)] | 0.67 | 0.24 | 1.11 | –
C[C@]12CC[C@@H]3c4ccc(O)cc4C[C@@H](CCCCCCCCC[S+]([O-])CCCC(F)(F)C(F)(F)F)[C@H]3[C@@H]1CC[C@@H]2O (stereo partly drawn) [Fulvestrant] | – | – | – | fold induction at 2.5 µM [1]: 0.17; fold induction at 2.5 µM [2]: 0.16; fold induction at 2.5 µM [3]: 0.18
Cc1nc(-c2cn3c(n2)-c2ccc(-c4cnn(C(C)(C)C(N)=O)c4)cc2OCC3)n(C(C)C)n1 [GDC-0032] | – | – | – | Average LMP1 Fold Increase (1 uM): 1.23; Replicate 1-LMP1 Fold Increase (1 uM): 1.86; Replicate 2-LMP1 Fold Increase (1 uM): 0.59
CC(C)NC[C@@H](C(=O)N1CCN(c2ncnc3c2[C@H](C)C[C@H]3O)CC1)c1ccc(Cl)cc1 [GDC-0068] | 0.27 | 0.27 | 0.27 | –
CN[C@@H](C)C(=O)N[C@H](C(=O)N1CCC[C@H]1C(=O)Nc1snnc1-c1ccccc1)C1CCCCC1 [GDC-0152] | 0.68 | 0.76 | 0.59 | –
CS(=O)(=O)N1CCN(Cc2cc3nc(-c4cccc5[nH]ncc45)nc(N4CCOCC4)c3s2)CC1 [GDC-0941] | 0.92 | 0.75 | 1.09 | –
NC(=O)c1cccc(-c2cc(Nc3ccc(OC(F)(F)F)cc3)ncn2)c1 [GNF-2] | 1.06 | 0.21 | 1.91 | –
CC1=C(C(=O)Nc2cc3cn[nH]c3cc2F)C(c2ccc(C(F)(F)F)cc2)CC(=O)N1 (stereo not drawn) [GSK429286A] | 0.57 | 0.60 | 0.54 | –
C[C@@H](Oc1cc(-n2cnc3ccc(CN4CCN(C)CC4)cc32)sc1C(N)=O)c1ccccc1C(F)(F)F [GSK461364] | 1.62 | 1.73 | 1.50 | –
CCn1c(-c2nonc2N)nc2c(C#CC(C)(C)O)ncc(OC[C@H]3CCCNC3)c21 [GSK690693] | 0.63 | 0.85 | 0.41 | –
CC(C)c1noc(N2CCC(COc3ccc(-c4ccc(S(C)(=O)=O)cc4)nc3)CC2)n1 [GSK1292263] | 0.27 | 0.20 | 0.34 | –
CCc1cc(Nc2nccc(-c3c(-c4ccc(OC)c(C(=O)Nc5c(F)cccc5F)c4)nc4ccccn34)n2)c(OC)cc1N1CCC(N2CCN(S(C)(=O)=O)CC2)CC1 [GSK1904529A] | 0.20 | 0.18 | 0.23 | –
